≈ marks a conversion by molar mass, not a printed value. Where a name gives a salt, the structure may show the parent alone.
Legend:
Format in all cases: cell-based, Staphylococcus aureus
[1] = tested on: S. aureus SCV strain NewbouldΔhemB; assay: MIC of compounds against SCV; details: for MIC: Staphylococcus aureus, read-out: MIC of Cpd against SCV hemB; for MIC of Cpd against SCV hemB: provided in categories (strong ≦ 0.5; moderate 4-8; low > 8)
S. aureus ATCC 29213 [2] = assay: MIC, microdilution in CAMHB 24 h, with or without tomatidine/compound; details: for MIC: Staphylococcus aureus; for Fold (−TO/+TO): tomatidine at 8 μg/ml
S. aureus ATCC 29213 [3] = assay: Checkerboard assay, aminoglycoside and tomatidine; details: for MIC: Staphylococcus aureus, ATCC29213, checkerboard; for FIC index: aminoglycoside with tomatidine, tomatidine MIC considered 32 μg/ml, values overestimated; for Aminoglycoside MIC: checkerboard
Method: This checkerboard protocol (Eliopoulos and Moellering, 1996) was conducted by a microdilution method similar to that use for standard MICs determination. In 96 wells plates, antibiotics were loaded at a 4× concentration (where X is the maximal tested concentration) in well A1 and at a 2× concentration in the others wells of the column 1. Antibiotics were serially diluted 1:1 from the column 2 to column 10. […] Wells A12, B12, […] are positive untreated controls whereas wells […] are negative non-inoculated controls. […] The FIC index was calculated as follow (Eliopoulos and Moellering, 1996): FIC […]/MICB, where A and B are MICs of compounds A and B in combination and where MICA and MICB are the MICs of compound A alone and of compound B alone, respectively, and FICA and FICB are the FICs of compound A and of compound B, respectively.

[4] = ATCC29213, read-out: MIC of Cpd against ATCC29213
[5] = gentamicin with 8 μg/ml of Cpd, provided in categories of synergy (1-2 no or mild; 4-16 moderate or strong)
[6] = ATCC29213, compound alone, read-out: MIC of Cpd against ATCC29213

Compound | MIC [1] | Fold (MIC of GEN alone/MIC of GEN with Cpd) (S. aureus ATCC 29213 [2]; [5]) | MIC of Cpd against SCV hemB [1] | MIC of Cpd against ATCC29213 (S. aureus ATCC 29213 [2]; compound alone) | further results
C[C@H]1CC[C@]2(NC1)O[C@@]1(C)C[C@@]3(C)[C@@H]4CC[C@@]5(C)C[C@@H](O)CC[C@]5(C)[C@@]4(C)CC[C@]3(C)[C@@]1(C)[C@@H]2C.O=C(O)CC(O)(CC(=O)O)C(=O)O [Compound 58, tomatidine citrate] | ≤ 0.5 µg/mL | 4-16 fold | – | – | MIC (S. aureus ATCC 29213 [2]; [4]): > 16 µg/mL
CC(O)[C@H]1CC[C@H]2[C@@H]3CC[C@H]4C[C@@H](O)CC[C@]4(C)[C@H]3CC[C@]12C (stereo in doubt) [Compound 54, pregnane-3,20-diol] | > 8 µg/mL | 1-2 fold | – | – | MIC (S. aureus ATCC 29213 [2]; [6]): > 16 µg/mL
C[C@H]1CC[C@@]2(O[C@H]3C[C@H]4[C@@H]5CC[C@H]6C[C@@H](O)CC[C@]6(C)[C@H]5CC[C@]4(C)[C@H]3[C@@H]2C)N(C=O)C1 [Compound 21, N-formyl tomatidine] | – | 1-2 fold | >8 µg/mL | >16 µg/mL | –
CC(N)[C@H]1CC[C@H]2[C@@H]3CC[C@H]4C[C@@H](O)CC[C@]4(C)[C@H]3CC[C@]12C (stereo partly drawn) [Compound 30a, pregnan-3β-ol-20-amine] | > 8 µg/mL | 1-2 fold | – | – | MIC (S. aureus ATCC 29213 [2]; [6]): > 16 µg/mL
[H]/N=C(/N)N[C@H]1[C@H](O)[C@@H](O)[C@H](O[C@@H]2O[C@@H](C)[C@](O)(C=O)[C@H]2O[C@@H]2O[C@@H](CO)[C@H](O)[C@@H](O)[C@@H]2NC)[C@@H](N/C(N)=N\[H])[C@@H]1O [Streptomycin, streptomycin] | – | – | – | – | MIC (S. aureus ATCC 29213 [3]; tomatidine 0 μg/ml): 4 to 8 µg/mL; MIC (S. aureus ATCC 29213 [3]; tomatidine 0.06 μg/ml): 4 µg/mL; MIC (S. aureus ATCC 29213 [3]; tomatidine 0.12 μg/ml): 2 µg/mL; MIC (S. aureus ATCC 29213 [3]; tomatidine 0.25 μg/ml): 1 to 2 µg/mL; MIC (S. aureus ATCC 29213 [3]; tomatidine 0.5 μg/ml): 1 µg/mL; MIC (S. aureus ATCC 29213 [3]; tomatidine 1 μg/ml): 1 µg/mL; MIC (S. aureus ATCC 29213 [3]; tomatidine 2 μg/ml): 1 µg/mL; MIC (S. aureus ATCC 29213 [3]; tomatidine 4 μg/ml): 1 µg/mL; MIC (S. aureus ATCC 29213 [3]; tomatidine 8 μg/ml): 1 µg/mL; FIC index (S. aureus ATCC 29213 [3]): ≦0.199; Fold (−TO/+TO) (S. aureus ATCC 29213 [2]; ATCC 29213): 4-8 fold; MIC (S. aureus ATCC 29213 [2]; ATCC29213, ATCC 29213, absence of tomatidine, read-out: MIC −TO): 4 to 8 µg/mL (≈ 6.88 to 13.8 µM); MIC (S. aureus ATCC 29213 [2]; ATCC29213, ATCC 29213, presence of tomatidine at 8 μg/ml, read-out: MIC +TO): 1 µg/mL
C[C@H]1CC[C@]2(NC1)O[C@H]1C[C@H]3[C@@H]4CC[C@H]5C[C@@H](O)CC[C@]5(C)[C@H]4CC[C@]3(C)[C@H]1[C@@H]2C [Tomatidine hydrochloride salt] | ≤ 0.5 µg/mL | 4-16 fold | – | – | MIC (S. aureus ATCC 29213 [2]; [4]): > 16 µg/mL
pregnan-3β-ol-20-(aminobutyl)amine hydrochloride Salt [Compound 44] | – | 1-2 fold | >8 µg/mL | >16 µg/mL | –
CN(C)CC(=O)[C@H]1CC[C@H]2[C@@H]3CC[C@H]4C[C@@H](O)CC[C@]4(C)[C@H]3CC[C@]12C [Compound 47, N,N-dimethyl-21-aminopregnanolone] | > 8 µg/mL | 1-2 fold | – | – | MIC (S. aureus ATCC 29213 [2]; [4]): > 16 µg/mL
C=CCOC1CCC2(C)C(CCC3C2CCC2(C)C3CC3OC4(CCC(C)CN4)C(C)C32)C1.Cl (centres unmarked) [Compound 56, O-allyltomatidine hydrochloride Salt] | – | – | ≦0.5 μg/ml | 8 to 16 µg/mL | Fold (MIC of GEN alone/MIC of GEN with Cpd) (S. aureus ATCC 29213 [2]; gentamicin with Compound 56 used at 4 μg/ml, categories of synergy): 4-16 fold
CNCC(=O)[C@H]1CC[C@H]2[C@@H]3CCC4CC(O)CC[C@]4(C)[C@H]3CC[C@]12C.Cl (some centres unmarked) [Compound 49, N-methyl-21-aminopregnanolone hydrochloride salt] | – | 1-2 fold | >8 µg/mL | >16 µg/mL | –
pregnan-3β-ol-20-(aminopropyl)amine hydrochloride Salt [Compound 43] | – | 1-2 fold | 4 to 8 µg/mL | >16 µg/mL | –
C[C@H]1CC[C@]2(NC1)O[C@H]1C[C@H]3[C@@H]4CC[C@H]5CC(=O)CC[C@]5(C)[C@H]4CC[C@]3(C)[C@H]1[C@@H]2C.Cl [Compound 25, 3-oxotomatidine hydrochloride Salt] | – | 4-16 fold | ≦0.5 μg/ml | >16 µg/mL | –
C[C@H]1CC[C@@]2(NC1)O[C@H]1C[C@H]3[C@@H]4CC[C@H]5C[C@H](O)CC[C@]5(C)[C@H]4CC[C@]3(C)[C@H]1[C@@H]2C.Cl [Compound 23, 3α-hydroxytomatidine hydrochloride Salt] | – | 4-16 fold | 4 to 8 µg/mL | >16 µg/mL | –
C[C@H](CN)CCC[C@@H](C)C1[C@@H](O)C[C@H]2[C@@H]3CC[C@H]4C[C@@H](O)CC[C@]4(C)[C@H]3CC[C@]12C (some centres unmarked) [Compound 26] | ≤ 0.5 µg/mL | 4-16 fold | – | – | MIC (S. aureus ATCC 29213 [2]; [4]): > 16 µg/mL
C[C@]12CC[C@H]3[C@@H](CCC4CC(O)CC[C@@]43C)[C@@H]1CC[C@@H]2C(=O)CN1CCNCC1.Cl (some centres unmarked) [Compound 50, 21-piperazinopregnanolone hydrochloride Salt] | – | 1-2 fold | >8 µg/mL | >16 µg/mL | –
C[C@]12CC[C@H](O)C[C@@H]1CC[C@@H]1[C@@H]2CC[C@]2(C)[C@@H](C(=O)CN3CCCCC3)CC[C@@H]12 [Compound 48, 21-piperidinopregnanolone] | > 8 µg/mL | 1-2 fold | – | – | MIC (S. aureus ATCC 29213 [2]; [4]): > 16 µg/mL
CC(NCCCN(C)C)[C@H]1CC[C@H]2[C@@H]3CC[C@H]4C[C@@H](O)CC[C@]4(C)[C@H]3CC[C@]12C (stereo partly drawn) [Compound 32, pregnan-3β-ol-20-((N,N-dimethylamino)propyl)amine] | > 8 µg/mL | 4-16 fold | – | – | MIC (S. aureus ATCC 29213 [2]; [6]): > 16 µg/mL
NCC[C@H](O)C(=O)N[C@@H]1C[C@H](N)[C@@H](O[C@H]2O[C@H](CN)[C@@H](O)[C@H](O)[C@H]2O)[C@H](O)[C@H]1O[C@H]1O[C@H](CO)[C@@H](O)[C@H](N)[C@H]1O [Amikacin, amikacin] | – | – | – | – | FIC index (S. aureus ATCC 29213 [3]): ≦0.133; Aminoglycoside MIC (S. aureus ATCC 29213 [3]; tomatidine 0 μg/ml): 2 µg/mL; Aminoglycoside MIC (S. aureus ATCC 29213 [3]; tomatidine 0.06 μg/ml): 2 µg/mL; Aminoglycoside MIC (S. aureus ATCC 29213 [3]; tomatidine 0.12 μg/ml): 0.5 µg/mL; Aminoglycoside MIC (S. aureus ATCC 29213 [3]; tomatidine 0.25 μg/ml): 0.25 µg/mL; Aminoglycoside MIC (S. aureus ATCC 29213 [3]; tomatidine 0.5 μg/ml): 0.25 to 0.5 µg/mL; Aminoglycoside MIC (S. aureus ATCC 29213 [3]; tomatidine 1 μg/ml): 0.25 to 1 µg/mL; Aminoglycoside MIC (S. aureus ATCC 29213 [3]; tomatidine 2 μg/ml): 0.25 to 1 µg/mL; Aminoglycoside MIC (S. aureus ATCC 29213 [3]; tomatidine 4 μg/ml): 0.25 µg/mL; Aminoglycoside MIC (S. aureus ATCC 29213 [3]; tomatidine 8 μg/ml): 0.5 µg/mL; MIC −TO (S. aureus ATCC 29213 [2]; ATCC 29213, absence of tomatidine): 2 µg/mL (≈ 3.42 µM); MIC +TO (S. aureus ATCC 29213 [2]; ATCC 29213, presence of tomatidine at 8 μg/ml): 0.5 µg/mL; Fold (−TO/+TO) (S. aureus ATCC 29213 [2]; ATCC 29213): 4 fold
CC(=O)[C@H]1CC[C@H]2[C@@H]3CC[C@H]4C[C@@H](O)CC[C@]4(C)[C@H]3CC[C@]12C [Compound 28, Pregnanolone] | > 8 µg/mL | 1-2 fold | – | – | MIC (S. aureus ATCC 29213 [2]; [4]): > 16 µg/mL
Solasodan | – | 1-2 fold | >8 µg/mL | >16 µg/mL | –
pregnan-3β-ol-20-(aminoethyl)amine hydrochloride Salt [Compound 42] | – | 1-2 fold | 4 to 8 µg/mL | >16 µg/mL | –
CS(=O)(=O)O.C[C@H]1CC[C@]2(NC1)O[C@H]1C[C@H]3[C@@H]4CC[C@H]5C[C@@H](O)CC[C@]5(C)[C@H]4CC[C@]3(C)[C@H]1[C@@H]2C [Compound 57, tomatidine methanesulfonate] | – | 4-16 fold | ≦0.5 μg/ml | >16 µg/mL | –
